The subject of series [1] is Fibroblasts. Nature of the series: Viability of cells in contact with crosslinking agents or gels with quenching agents (Example 2). The series is classed as cell-based. As to the method: Gels containing various ratios of reactive groups in crosslinking agents to those in the matrix molecules with quenching agents were prepared as indicated in Table 2. Normality was used to indicate the number of reactive groups in the crosslinking agents, the number of functional groups in the matrix molecules, or the number of moieties in the quenching agents. Live cells were seeded and added to the gels, and cell viability was observed. Crosslinking agents were divided into two groups: highly toxic and less toxic. Glutaraldehyde was one of the highly toxic crosslinking agents and epoxide and genipin were the less toxic crosslinking agents. The quenching agents tested were poly-L-lysine and γ-polyglutamic acid.
The above results were summarized from various sets of experiments. Specifically, final concentrations of 0.1 mN, 0.5 mN, 1 mN, and 5 mN of glutaraldehyde were tested alone or added to a gelatin or collagen solution in the presence of poly-L-Lysine as a quenching reagent.

Another series relates to NIH3T3 fibroblast cells. As to the kind of experiment: Toxicity of collagen gels with crosslinking agents (Example 3). The series is classed as cell-based. The note with it: for relative toxicity among the three crosslinking agents: collagen gels. How it is done: Gels were prepared from collagen with glutaraldehyde, EX-810, and genipin at 5 mN, 1 mN, 0.5 mN, and 0.1 mN, respectively. Out of the three crosslinking agents, glutaraldehyde was the most toxic and genipin was the least toxic. Normality was used to indicate the numbers of reactive groups in the crosslinking agents. NIH3T3 fibroblast cells were cultured with the gels and a culture medium in a 96-well plate at 4×10^4 cells per well. Cell viability was observed.

Series [2] has as its system Fibroblasts.
Protocol: The cytotoxic effect of the adhesive was evaluated by applying 10 μL of the adhesive to the center of a well of a 24-well plate. Fibroblasts (2.0×10^4 cell/well) were seeded and incubated at 37° C. with 5% CO2 for 38 hours. The number of viable cells was quantified by a hemacytometer.

Entries after “also recorded” stand apart in the source; their conditions may differ. Where two headings read alike, the source gives them in different places.

Regarding `COC(=O)C1=CO[C@@H](O)[C@@H]2C(CO)=CC[C@H]12` [genipin], the “fibroblast viability in gel” value in the series with Fibroblasts [1] (5 mN crosslinker and total 5 mN collagen and poly-L-lysine) is on record as “some fibroblasts died; also recorded: most fibroblasts survived in the distal area”. Moreover, the Viability of cells entry was “Some” with Fibroblasts [1] (Normality ratio 1:1 of reactive groups in crosslinking agent to functional groups in matrix molecules and quenching agents); “All die” in the series with Fibroblasts [1] (Normality ratio 5:1 of reactive groups in crosslinking agent to functional groups in matrix molecules and quenching agents); “All die” with Fibroblasts [1] (crosslinking agent only, ≥5 mN). The “Viability of cells (alive)” value in the series on Fibroblasts [1] (Normality ratio 1:5) is given as 100%; in the series with Fibroblasts [1] (Normality ratio 1:10), 100%; in the series on Fibroblasts [1] (Normality ratio 1:50), 100%; in the series with Fibroblasts [1] (crosslinking agent only, 1 mN), not below 80%. In the series on NIH3T3 fibroblast cells (collagen gel, 1 mN crosslinker), the cell proliferation entry is recorded as “no cell proliferation”. The cells survived entry with NIH3T3 fibroblast cells (collagen gel, 1 mN crosslinker) is on record as “over 80%”. The cell viability entry in the series on NIH3T3 fibroblast cells (collagen gel, 5 mN crosslinker) is “all cells died”. Moreover, in the series on NIH3T3 fibroblast cells, the “relative toxicity among the three crosslinking agents” value is “least toxic”. The “cytotoxicity of the adhesive” value with Fibroblasts [2] is “increased with elevated concentration of genipin”.

On to `O=CCCCC=O` [glutaraldehyde], for which, in the series on Fibroblasts [1], the “Viability of cells (alive)” value is 100%; the “cell viability in gel” value was “most adjacent cells died”; the “fibroblast viability in gel” value is “survived and proliferated like the control groups”. In the series with Fibroblasts [1] (24 h, 0.1 mN), the “Viability of cells (alive)” value was approximately 20% and the cells survived entry is “about 20%”. In addition, the “cells adhered to the gel” value in the series on NIH3T3 fibroblast cells (collagen gel, 0.1 mN crosslinker) was 20%. Further, the cell viability result in the series on NIH3T3 fibroblast cells (collagen gel, 0.5 mN crosslinker, 24 hours of culturing) is on record as “most cells died”. Moreover, the “relative toxicity among the three crosslinking agents” value in the series with NIH3T3 fibroblast cells is recorded as “most toxic”.
